Among the data in patent US7135466B2 (Kirin Beer Kabushiki Kaisha, priority 1999, dated 2006) are inhibition and IC50 values, retold here.

The term inhibition denotes the change of the read-out against control, counted positive when it falls. Broadly, the IC50 is the point on the concentration scale where inhibition reaches its midpoint.

In one assay the target is T1, c-kit (Homo sapiens, UniProt P10721).
T1 construct: MO7e (human megakaryocytic leukemia cell line) which had been arrested for 20 hr; endogenous in cells; host or cells: MO7e human megakaryocytic leukemia cell line
T1 sequence (P10721 26-976): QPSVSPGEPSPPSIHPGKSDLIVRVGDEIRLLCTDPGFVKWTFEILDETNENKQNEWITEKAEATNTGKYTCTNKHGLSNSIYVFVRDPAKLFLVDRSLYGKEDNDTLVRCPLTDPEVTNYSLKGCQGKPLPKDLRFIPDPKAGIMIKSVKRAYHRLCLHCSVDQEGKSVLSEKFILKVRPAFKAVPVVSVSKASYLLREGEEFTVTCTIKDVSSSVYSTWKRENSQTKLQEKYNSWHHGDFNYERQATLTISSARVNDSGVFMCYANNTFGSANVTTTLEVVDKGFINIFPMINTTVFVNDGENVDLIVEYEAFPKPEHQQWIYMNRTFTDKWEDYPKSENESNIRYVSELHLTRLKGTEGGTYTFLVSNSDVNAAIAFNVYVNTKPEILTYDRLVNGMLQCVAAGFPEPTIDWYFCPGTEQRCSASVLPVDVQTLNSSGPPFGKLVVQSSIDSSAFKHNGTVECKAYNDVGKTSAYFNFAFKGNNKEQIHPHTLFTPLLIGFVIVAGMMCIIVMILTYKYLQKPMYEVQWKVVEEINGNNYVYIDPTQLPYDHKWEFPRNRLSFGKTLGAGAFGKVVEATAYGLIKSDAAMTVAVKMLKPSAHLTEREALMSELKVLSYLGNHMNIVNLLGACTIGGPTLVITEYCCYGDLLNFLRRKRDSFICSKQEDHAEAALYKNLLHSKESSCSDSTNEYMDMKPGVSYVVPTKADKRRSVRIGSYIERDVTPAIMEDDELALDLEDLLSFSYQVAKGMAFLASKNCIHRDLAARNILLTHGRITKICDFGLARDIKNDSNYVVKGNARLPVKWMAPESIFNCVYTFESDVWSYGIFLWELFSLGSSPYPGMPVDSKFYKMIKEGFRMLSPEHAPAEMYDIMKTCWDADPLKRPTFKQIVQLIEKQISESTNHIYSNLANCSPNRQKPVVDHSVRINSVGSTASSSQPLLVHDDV
The assay can be described thus: Inhibitory activity against c-kit autophosphorylation (MO7e cells, h-SCF). The format is cell-based. Conditions: for inhibition at 1 µM: Mo7e, figure in parentheses in −( ), at 1000 nM; for IC50: MO7e cells, h-SCF stimulation, read-out: c-kit IC50. In a few lines:
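Growth-arrested (20 hr) MO7e; cpd in DMSO, 1 hr; h-SCF 50 ng/ml, 5 min; lyse. ELISA: anti-pTyr (PY-20) capture, anti-c-kit 1° Ab, HRP anti-rabbit 2° Ab, A450.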

The target in the next assay is T2, PDGF-Ra (Homo sapiens, UniProt P16234).
T2 construct: host or cells: G-292 human osteosarcoma cells
T2 sequence (P16234 24-1089): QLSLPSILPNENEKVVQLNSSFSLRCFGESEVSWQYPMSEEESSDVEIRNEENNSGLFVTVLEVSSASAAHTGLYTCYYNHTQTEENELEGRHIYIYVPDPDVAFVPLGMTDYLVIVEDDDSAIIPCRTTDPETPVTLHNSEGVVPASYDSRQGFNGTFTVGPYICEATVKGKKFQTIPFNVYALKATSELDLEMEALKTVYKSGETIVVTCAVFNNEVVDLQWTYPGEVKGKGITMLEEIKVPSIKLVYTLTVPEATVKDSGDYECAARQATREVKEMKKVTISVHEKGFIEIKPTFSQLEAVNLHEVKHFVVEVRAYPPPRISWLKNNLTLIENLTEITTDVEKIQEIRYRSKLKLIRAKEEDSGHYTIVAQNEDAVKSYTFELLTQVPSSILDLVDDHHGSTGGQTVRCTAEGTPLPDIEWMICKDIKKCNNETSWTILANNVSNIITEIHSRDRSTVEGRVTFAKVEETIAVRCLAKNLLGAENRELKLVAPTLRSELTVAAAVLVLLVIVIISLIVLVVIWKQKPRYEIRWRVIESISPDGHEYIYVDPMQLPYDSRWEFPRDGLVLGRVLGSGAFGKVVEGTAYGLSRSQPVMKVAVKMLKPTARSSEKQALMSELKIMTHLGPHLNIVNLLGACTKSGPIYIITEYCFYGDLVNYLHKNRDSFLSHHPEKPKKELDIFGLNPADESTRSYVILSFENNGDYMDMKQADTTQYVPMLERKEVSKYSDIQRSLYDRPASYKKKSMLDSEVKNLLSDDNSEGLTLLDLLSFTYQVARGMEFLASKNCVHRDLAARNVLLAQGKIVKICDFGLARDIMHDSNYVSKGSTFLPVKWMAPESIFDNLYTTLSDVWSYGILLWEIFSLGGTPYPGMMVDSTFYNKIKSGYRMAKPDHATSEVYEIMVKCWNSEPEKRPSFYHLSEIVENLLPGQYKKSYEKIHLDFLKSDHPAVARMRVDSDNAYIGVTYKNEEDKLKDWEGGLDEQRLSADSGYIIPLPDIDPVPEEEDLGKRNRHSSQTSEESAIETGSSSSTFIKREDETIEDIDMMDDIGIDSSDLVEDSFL
The assay can be described thus: Inhibitory activity against PDGF-Ra phosphorylation by PDGF-AA stimulation using G292. The format is cell-based. The settings on record: > means inhibition at indicated concentration not more than 50%, < and << not less than 50%; read-out: PDGF (E) IC50. The essentials: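 G-292 human osteosarcoma cells, serum-starved overnight in 0.1% FBS, were pretreated with compound in DMSO for 1 hr at 37 °C, then stimulated with 50 ng/ml PDGF-AA for 5 min. Lysates were captured on anti-phosphotyrosine PY-20 plates and probed with anti-PDGF-Ra plus HRP secondary; absorbance read at 450 nm.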

For `COc1cc2nccc(Oc3ccc(NC(=S)NC(=O)c4ccc(-c5ccccc5)cc4)cc3F)c2cc1OC` [Example 991, N-{4-[(6,7-Dimethoxy-4-quinolyl)oxy]-3-fluorophenyl}-N′-(4-phenylbenzoyl)thiourea], at c-kit, the inhibition at 1 µM was determined as 20%. The half-inhibitory concentration (IC50) on PDGF-Ra is 19 nM.
The corresponding values for `CCCc1ccc(C(=O)NC(=S)Nc2ccc(Oc3ccnc4cc(OC)c(OC)cc34)cc2F)cc1` [Example 994, N-{4-[(6,7-Dimethoxy-4-quinolyl)oxy]-2-fluorophenyl}-N′-(4-propylbenzoyl)thiourea] are 47% and 27 nM.
With `CCCCc1ccc(C(=O)NC(=S)Nc2ccc(Oc3ccnc4cc(OC)c(OC)cc34)cc2F)cc1` [Example 995, N-(4-Butylbenzoyl)-N′-{4-[(6,7-dimethoxy-4-quinolyl)oxy]-2-fluorophenyl}thiourea], on c-kit, the inhibition at 1 µM stood at 23%. For the same molecule, at PDGF-Ra, the IC50 stood at 87 nM.
The corresponding values for `COc1cc2nccc(Oc3ccc(NC(=S)NC(=O)c4ccc(CCl)cc4)c(F)c3)c2cc1OC` [Example 996, N-[4-(Chloromethyl)benzoyl]-N′-{4-[(6,7-dimethoxy-4-quinolyl)oxy]-2-fluorophenyl}thiourea] are 27% and 53 nM.
In the case of `CCc1ccc(C(=O)NC(=S)Nc2ccc(Oc3ccnc4cc(OC)c(OC)cc34)c(F)c2)cc1` [Example 997, N-{4-[(6,7-Dimethoxy-4-quinolyl)oxy]-3-fluorophenyl}-N′-(4-ethylbenzoyl)thiourea], the figures for the IC50 on c-kit and on PDGF-Ra were 264 nM and 9 nM, respectively.
For `CCCc1ccc(C(=O)NC(=S)Nc2ccc(Oc3ccnc4cc(OC)c(OC)cc34)c(F)c2)cc1` [Example 998, N-{4-[(6,7-Dimethoxy-4-quinolyl)oxy]-3-fluorophenyl}-N′-(4-propylbenzoyl)thiourea], the IC50 at c-kit turned out to be 591 nM; on PDGF-Ra, 25 nM.
With `CCCCc1ccc(C(=O)NC(=S)Nc2ccc(Oc3ccnc4cc(OC)c(OC)cc34)c(F)c2)cc1` [Example 999, N-(4-Butylbenzoyl)-N′-{4-[(6,7-dimethoxy-4-quinolyl)oxy]-3-fluorophenyl}thiourea], the inhibition at 1 µM at c-kit came out at 45%. The IC50 at PDGF-Ra was found to be 29 nM.
Regarding `COc1cc2nccc(Oc3ccc(NC(=S)NC(=O)c4ccc(CCl)cc4)cc3F)c2cc1OC` [Example 1000, N-[4-(Chloromethyl)benzoyl]-N′-{4-[(6,7-dimethoxy-4-quinolyl)oxy]-3-fluorophenyl}thiourea], the IC50 on c-kit was determined as 771 nM; on PDGF-Ra, 3 nM.
For `CCCc1ccc(C(=O)NC(=S)Nc2ccc(Oc3ccnc4cc(OC)c(OC)cc34)c(Cl)c2)cc1` [Example 1001, N-{3-Chloro-4-[(6,7-dimethoxy-4-quinolyl)oxy]phenyl}-N′-(4-propylbenzoyl)thiourea], the inhibition at 1 µM at c-kit was 34%. The concentration for half-maximal inhibition (IC50) at PDGF-Ra is under 10 nM.
Regarding `COc1cc2ncnc(Oc3ccc(NC(=S)NC(=O)c4ccc(CCl)cc4)cc3)c2cc1OC` [Example 1002, N-[4-(Chloromethyl)benzoyl]-N′-{4-[(6,7-dimethoxy-4-quinazolinyl)oxy]phenyl}thiourea], the inhibition at 1 µM on c-kit was found to be 16%. Besides, on PDGF-Ra, the IC50 was under 10 nM.
With `COc1cc2nccc(Oc3ccc(NC(=S)NC(=O)c4ccc(C)cc4C)cc3)c2cc1OC` [Example 1003, N-{4-[(6,7-Dimethoxy-4-quinolyl)oxy]phenyl}-N′-(2,4-dimethylbenzoyl)thiourea], the IC50 was 628 nM on c-kit and 24 nM on PDGF-Ra.
The corresponding values for `COc1cc2nccc(Oc3ccc(NC(=S)NC(=O)c4cc(C)ccc4C)cc3)c2cc1OC` [Example 1004, N-{4-[(6,7-Dimethoxy-4-quinolyl)oxy]phenyl}-N′-(2,5-dimethylbenzoyl)thiourea] are 877 nM and 10 nM.
On the same counts, the results for `COc1cc2nccc(Oc3ccc(NC(=S)NC(=O)c4cccc(C)c4C)cc3)c2cc1OC` [Example 1005, N-{4-[(6,7-Dimethoxy-4-quinolyl)oxy]phenyl}-N′-(2,3-dimethylbenzoyl)thiourea] are 674 nM and 28 nM.
On the same counts, the results for `COc1cc2nccc(Oc3ccc(NC(=S)NC(=O)c4cc(Cl)cc(Cl)c4)cc3)c2cc1OC` [Example 1009, N-(3,5-Dichlorobenzoyl)-N′-{4-[(6,7-dimethoxy-4-quinolyl)oxy]phenyl}thiourea] are 243 nM and 21 nM.
`COc1cc2nccc(Oc3ccc(NC(=S)NC(=O)c4cccc(C)c4C)cc3Cl)c2cc1OC` [Example 1018, N-{3-Chloro-4-[(6,7-dimethoxy-4-quinolyl)oxy]phenyl}-N′-(2,3-dimethylbenzoyl)thiourea]: the IC50 was 320 nM at c-kit and 10 nM on PDGF-Ra.
For `COc1cc2nccc(Oc3ccc(NC(=S)NC(=O)c4cc(C)cc(C)c4)cc3Cl)c2cc1OC` [Example 1019, N-{3-Chloro-4-[(6,7-dimethoxy-4-quinolyl)oxy]phenyl}-N′-(3,5-dimethylbenzoyl)thiourea], the IC50 was determined as 187 nM at c-kit and 22 nM at PDGF-Ra.
As for `COc1cc2nccc(Oc3ccc(NC(=S)NC(=O)Cc4ccccc4)cc3)c2cc1OC` [Example 1022, N-{4-[(6,7-Dimethoxy-4-quinolyl)oxy]phenyl}-N′-(2-phenylacetyl)thiourea], the results for the IC50 at c-kit and at PDGF-Ra were 202 nM and 28 nM, respectively.
For the molecule `COc1cc2nccc(Oc3ccc(NC(=S)NC(=O)CC4CCCCC4)cc3)c2cc1OC` [Example 1023, N-(2-Cyclohexylacetyl)-N′-{4-[(6,7-dimethoxy-4-quinolyl)oxy]phenyl}thiourea], the IC50 on c-kit stood at 116 nM; at PDGF-Ra, 22 nM.
The corresponding values for `COc1cc2nccc(Oc3ccc(NC(=S)NC(=O)Cc4ccccc4)c(F)c3)c2cc1OC` [Example 1024, N-{4-[(6,7-Dimethoxy-4-quinolyl)oxy]-2-fluorophenyl}-N′-(2-phenylacetyl)thiourea] are 141 nM and 11 nM.
The corresponding values for `COc1ccccc1CCC(=O)NC(=S)Nc1ccc(Oc2ccnc3cc(OC)c(OC)cc23)cc1` [Example 1025, N-{4-[(6,7-Dimethoxy-4-quinolyl)oxy]phenyl}-N′-[3-(2-methoxyphenyl)propanoyl]thiourea] are 194 nM and 15 nM.
As for `COc1cc2nccc(Oc3ccc(NC(=S)NC(=O)CCc4ccccc4)cc3F)c2cc1OC` [Example 1028, N-{4-[(6,7-Dimethoxy-4-quinolyl)oxy]-3-fluorophenyl}-N′-(3-phenylpropanoyl)thiourea], the figures for the IC50 on c-kit and at PDGF-Ra were 545 nM and under 10 nM, respectively.
On the same counts, the results for `COc1cc2nccc(Oc3ccc(NC(=S)NC(=O)CCC4CCCC4)cc3F)c2cc1OC` [Example 1029, N-(3-Cyclopentylpropanoyl)-N′-{4-[(6,7-dimethoxy-4-quinolyl)oxy]-3-fluorophenyl}thiourea] are 126 nM and 5 nM.
On the same counts, the results for `COc1cc2nccc(Oc3ccc(NC(=S)NC(=O)CCC4CCCC4)cc3Cl)c2cc1OC` [Example 1030, N-{3-Chloro-4-[(6,7-dimethoxy-4-quinolyl)oxy]phenyl}-N′-(3-cyclopentylpropanoyl)thiourea] are 337 nM and 14 nM.
